Source: ChEMBL document CHEMBL3763058, “Design, RNA cleavage and antiviral activity of new artificial ribonucleases derived from mono-, di- and tripeptides connected by linkers of different hydrophobicity” (Bioorg Med Chem, 2016)
Activity calls are given as the source filed them. The rule behind the calls is not given here.

Legend:
[1] = tested on: Human immunodeficiency virus 1; assay: Binding affinity to HIV1 5'-[32P]HIV96 RNA assessed as time of half viral RNA cleavage of at 1 mM
[2] = tested on: Human immunodeficiency virus 1; assay: Binding affinity to HIV1 5'-[32P]HIV96 RNA assessed as viral RNA cleavage at 1 mM measured after 3 and 7 hrs relative to control
[3] = tested on: Human immunodeficiency virus 1; assay: Binding affinity to HIV1 5'-[32P]ON21 RNA assessed as viral RNA cleavage at 1 mM measured after 3 and 7 hrs relative to control
[4] = tested on: Influenza A virus; assay: (§1) Antiviral activity against Influenza A virus (A/WSN/33(H1N1)) infected in MDCK cells assessed as viral titer at 0.2 mM compound preincubated with virus for 24 hrs followed by host cell infection measured after 18 hrs by AEC staining based inverted microscopic analysis (reference value: 5.2 log10 FFU/ml); format: functional, A/WSN/1933(H1N1)
[5] = tested on: Influenza A virus; assay: Antiviral activity against Influenza A virus (A/WSN/33(H1N1)) infected in MDCK cells assessed as reduction in viral titer at 0.001 to 4 mM compound preincubated with virus for 24 hrs followed by host cell infection measured after 18 hrs by AEC staining based inverted microscopic analysis relative to control; format: functional, A/WSN/1933(H1N1)
[6] = tested on: MDCK; assay: Cytotoxicity against MDCK cells assessed as reduction in cell viability after 24 hrs by MTT assay; format: cell-based; settings: Canis lupus familiaris
[7] = tested on: Influenza A virus; assay: Antiviral activity against Influenza A virus (A/WSN/33(H1N1)) infected in MDCK cells assessed as reduction in viral titer compound preincubated with virus for 24 hrs followed by host cell infection measured after 24 hrs by AEC staining based inverted microscopic analysis; format: functional, organism-based; settings: A/WSN/1933(H1N1)
[8] = tested on: Influenza A virus; assay: as §1, with “0.5” for “0.2”; format: functional, A/WSN/1933(H1N1)
[9] = tested on: Human immunodeficiency virus 1; assay: Binding affinity to HIV1 5'-[32P]HIV96 RNA assessed as viral RNA cleavage rate constant at 1 mM
[10] = tested on: Influenza A virus; assay: as §1, with “1” for “0.2”; format: functional, A/WSN/1933(H1N1)
[11] = tested on: Human immunodeficiency virus 1; assay: Binding affinity to HIV1 5'-[32P]ON21 RNA in cacodylate buffer assessed as RNA cleavage rate constant for 3 hrs at pH 6.2 to 7.2
[12] = tested on: Influenza A virus; assay: Antiviral activity against Influenza A virus (A/WSN/33(H1N1)) infected in MDCK cells assessed as reduction in viral titer at 4 mM compound preincubated with virus for 24 hrs followed by host cell infection measured after 18 hrs by AEC staining based inverted microscopic analysis; format: functional, A/WSN/1933(H1N1)
[13] = tested on: Influenza A virus; assay: as §1, with “0.1” for “0.2”; format: functional, A/WSN/1933(H1N1)
[14] = tested on: Influenza A virus; assay: as §1, with “2” for “0.2”; format: functional, A/WSN/1933(H1N1)
[15] = tested on: Influenza A virus; assay: as §1, with “4” for “0.2”; format: functional, A/WSN/1933(H1N1)
[16] = tested on: Influenza A virus; assay: Antiviral activity against Influenza A virus (A/WSN/33(H1N1)) infected in MDCK cells assessed as reduction in viral titer at 2 mM compound preincubated with virus for 24 hrs followed by host cell infection measured after 18 hrs by AEC staining based inverted microscopic analysis relative to control; format: functional, A/WSN/1933(H1N1)
[17] = tested on: Human immunodeficiency virus 1; assay: Binding affinity to HIV1 5'-[32P]ON21 RNA in Tris-Hcl buffer assessed as RNA cleavage rate constant for 5 hrs at pH 7.5

Row | SMILES | TIME [1] [h] | Activity [2] [%] | Activity [3] [%] | Activity [4] [log10FFU/ml] | fold change (FC) [5] | IC50 [6] [µM] | Activity [7] | Activity [8] [log10FFU/ml] | K [9] [h⁻¹] | Activity [10] [log10FFU/ml] | Activity [11] | fold change (FC) [12] | Activity [13] [log10FFU/ml] | Activity [14] [log10FFU/ml] | Activity [15] [log10FFU/ml] | fold change (FC) [16] | Activity [17]
1 | N[C@@H](CCC(=O)O)C(=O)NCCCCCCCCCCCCNC(=O)[C@@H](N)CCC(=O)O | 2 | 60 | 39 | 4.8 | 1.5 | > 5000 | Dose-dependent effect | 2.1 | 0.276 | <1 | Active |  |  |  |  |  | 
2 | N=C(N)NCCC[C@H](N)C(=O)NCCCOCCCCOCCCNC(=O)[C@@H](N)CCCNC(=N)N | 10 | 38 | 25 |  |  |  |  |  | 0.062 |  |  |  |  |  |  |  | 
3 | NCCCC[C@H](NCCCCCNC(=O)[C@@H](N)CCC(=O)O)C(=O)NCCCCCCCCCCCCNC(=O)[C@H](CCCCN)NC(=O)CCCCCNC(=O)[C@@H](N)CCC(=O)O | 3 | 55 | 35 |  | 1.5 | 500 | Dose-dependent effect |  | 0.254 | 3.7 | Active | 1.5 | 3.8 |  |  |  | 
4 | N[C@@H](CO)C(=O)NCCCOCCCCOCCCNC(=O)[C@@H](N)CO | > 24 | 6 | 3 |  |  |  |  |  | 0.002 |  |  |  |  |  |  |  | 
5 | N[C@@H](CCC(=O)OCc1ccccc1)C(=O)NCCCCCCCCCCCCNC(=O)[C@@H](N)CCC(=O)OCc1ccccc1 | 9 | 18 | 45 | 4.4 |  | > 5000 | Dose-dependent effect |  | 0.053 |  |  |  |  | 2.3 | <1 |  | 
6 | NCCCC[C@H](N)C(=O)NCCCOCCCCOCCCNC(=O)[C@@H](N)CCCCN | 20 | 19 | 8 |  |  |  |  |  | 0.011 |  |  |  |  |  |  |  | 
7 | NCCCC[C@H](N)C(=O)NCCCCCCCCCCCCNC(=O)[C@@H](N)CCCCN | 7 | 24 | 8 |  |  |  |  |  | 0.07 |  |  |  |  |  |  |  | 
8 | NCCCC[C@H](N)C(=O)NCCCCCC(=O)N[C@@H](CO)C(=O)NCCCOCCCCOCCCNC(=O)[C@H](CO)NC(=O)CCCCCNC(=O)[C@@H](N)CCCCN | > 24 | 10 | 11 |  |  |  |  |  | 0.005 |  |  |  |  |  |  |  | 
9 | O=C(/C=C/c1c[nH]cn1)N[C@@H](CCCCNC(=O)OCc1ccccc1Cl)C(=O)NCCCOCCCCOCCCNC(=O)[C@H](CCCCNC(=O)OCc1ccccc1Cl)NC(=O)/C=C/c1c[nH]cn1 | 7 | 52 | 42 | 4.5 |  | 700 | Dose-dependent effect |  | 0.11 |  |  |  |  | 4 |  |  | 
10 | N[C@@H](CCC(=O)O)C(=O)NCCCCCC(=O)N[C@@H](CO)C(=O)NCCCOCCCCOCCCNC(=O)[C@H](CO)NC(=O)CCCCCNC(=O)[C@@H](N)CCC(=O)O | 17 | 23 | 18 |  |  |  |  |  | 0.033 |  |  |  |  |  |  |  | 
11 | NCCCC[C@H](NC(=O)CCCCCNC(=O)[C@@H](N)CCC(=O)O)C(=O)NCCCOCCCCOCCCNC(=O)[C@H](CCCCN)NC(=O)CCCCCNC(=O)[C@@H](N)CCC(=O)O | 6 | 57 | 33 | 4.9 | 1.5 | 200 | Dose-dependent effect |  | 0.082 |  |  |  |  | 2.2 |  | 3 | 
12 | N[C@@H](CO)C(=O)NCCCCCCCCCCCCNC(=O)[C@@H](N)CO | 6 | 28 | 13 |  |  |  |  |  | 0.079 |  |  |  |  |  |  |  | 
13 | NCCCC[C@H](NC(=O)CCc1c[nH]cn1)C(=O)NCCCOCCCCOCCCNC(=O)[C@H](CCCCN)NC(=O)CCc1c[nH]cn1 | 8 | 44 | 29 |  |  |  |  |  | 0.076 |  | inactive |  |  |  |  |  | Active
